Laboratory results taken from patent publication US10273226B2, “Pyrazolyl-heteroarylamides as pesticides” (Bayer Animal Health GmbH, priority 2014, dated 2019).

Key:
Type in all cases: in vivo
[1] = system: Ctenocephalides felis; assay: Ctenocephalides felis in vitro contact test with adult cat fleas; settings: application rate 5 μg/cm^2 (500 g/ha); after 48 h; fleas dead or moribund
Outline: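 Adult Ctenocephalides felis (5-10 per tube) were held 48 h at room temperature in tubes whose inner walls carried dried active ingredient, e.g. 5 μg/cm^2 from a 900 ppm acetone coating. Percent efficacy reflects fleas motionless or uncoordinated after being knocked to the tube base.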

[2] = system: Rhipicephalus sanguineus; assay: Rhipicephalus sanguineus in vitro contact test with adult brown dog ticks; settings: application rate 5 μg/cm^2 (500 g/ha); after 48 h; ticks dead or moribund
Outline: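 Test tubes (25 ml) were coated by dissolving active ingredient in acetone p.a., diluting to the required concentration, and spreading 250 μl over the inner walls and base on an orbital shaker at 30 rpm for 2 h. Once dry, 5-10 adult Rhipicephalus sanguineus were added, and tubes were capped with perforated lids and kept horizontal in darkness at room temperature. At 48 h, ticks were knocked down and heated at 45-50° C. for up to 5 min. Those unable to climb away were counted dead or moribund, and efficacy ran from 0% to 100%.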

[3] = system: Boophilus microplus Parkhurst strain, SP-resistant; assay: Boophilus microplus dip test; settings: application rate 100 ppm, assessed after 7 days
Method: Boophilus microplus—Dip Test
Test animals: cattle ticks (Boophilus microplus) Parkhurst strain, SP-resistant
Solvent: dimethyl sulphoxide
10 mg of active ingredient are dissolved in 0.5 ml of dimethyl sulphoxide. For the purpose of producing a suitable formulation, the active ingredient solution is diluted with water to the concentration desired in each case.
This active ingredient formulation is pipetted into tubes. 8-10 adult engorged female cattle ticks (Boophilus microplus) are transferred into a further tube with holes. The tube is immersed into the active ingredient formulation, and all the ticks are completely wetted. After the liquid has run out, the ticks are transferred on filter discs into plastic dishes and stored in a climate-controlled room.
Efficacy is assessed after 7 days by laying of fertile eggs. Eggs which are not visibly fertile are stored in a climate-controlled cabinet until the larvae hatch after about 42 days. An efficacy of 100% means that none of the ticks has laid any fertile eggs; 0% means that all the eggs are fertile.

[4] = system: Boophilus microplus; assay: Boophilus microplus injection test; settings: application rate 20 μg/animal; injection into abdomen; assessed after 7 days
Outline: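 Engorged adult female Boophilus microplus ticks (5 per dose) each received a 1 μl abdominal injection of compound in DMSO and were held in a climate-controlled room. Efficacy was scored after 7 days from fertile egg laying, with unclear eggs kept until hatching (~42 days); 100% means no fertile eggs.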

[5] = system: Ctenocephalides felis; assay: Ctenocephalides felis oral test; settings: application rate 100 ppm in citrated cattle blood; after 2 days
Outline: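 Fleas ingest treated citrated cattle blood (DMSO formulation) through parafilm; percent killed assessed after two days.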

[6] = system: Lucilia cuprina; assay: Lucilia cuprina test; settings: application rate 100 ppm; L1 larvae; after 2 days
Outline: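 Mortality read at 2 days as percent larvae killed (100% = all, 0% = none). Test used roughly 20 first-instar larvae on minced horsemeat dosed with water-diluted DMSO formulation of compound.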

[7] = system: Musca domestica; assay: Musca domestica test; settings: application rate 100 ppm; adult houseflies; after 2 days
Outline: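 Water-diluted DMSO stock of compound, mixed onto a sugar-treated sponge, served as the sole exposure route for ten adult houseflies. Kill percentage scored at 2 days.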

[8] = system: Myzus persicae; assay: Myzus persicae spray test; settings: application rate 100 g/ha; after 6 days
Method: Myzus persicae—Spray Test
To produce an appropriate active ingredient formulation, 1 part by weight of active ingredient is dissolved using the specified parts by weight of solvent and made up with water containing an emulsifier concentration of 1000 ppm until the desired concentration is attained. To produce further test concentrations, the preparation is diluted with emulsifier-containing water.
Discs of Chinese cabbage leaves (Brassica pekinensis) infested by all stages of the green peach aphid (Myzus persicae) are sprayed with an active ingredient formulation of the desired concentration.
After 6 days, efficacy in % is determined. 100% means that all the aphids have been killed; 0% means that none of the aphids have been killed.

[9] = system: Phaedon cochleariae; assay: Phaedon cochleariae spray test; settings: application rate 100 g/ha; larvae; after 7 days
Outline: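 Mortality of Phaedon larvae, in %, was read 7 days after release onto sprayed, dried Brassica pekinensis leaf discs. Test dilutions were prepared in water with 1000 ppm emulsifier. A score of 0% means no larvae died and 100% means all were killed.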

[10] = system: Spodoptera frugiperda; assay: Spodoptera frugiperda spray test; settings: application rate 100 g/ha; caterpillars; after 7 days
Outline: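 Percent kill of armyworm caterpillars was scored 7 days after they were placed on dried, sprayed Zea mays leaf discs. Spray solutions were made by dissolving active ingredient in solvent and diluting with 1000 ppm emulsifier water.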

[11] = system: Tetranychus urticae; assay: Tetranychus urticae spray test, OP-resistant; settings: application rate 100 g/ha; after 6 days
Outline: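 Percent kill is assessed 6 days after spraying infested Phaseolus vulgaris leaf discs, with all mite stages present. Compound is applied as a solvent/emulsifier aqueous formulation at the desired concentration.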

Structure (SMILES)	efficacy [1] [%]	efficacy [2] [%]	efficacy (laying of fertile eggs) [3] [%]	efficacy (laying of fertile eggs) [4] [%]	efficacy (kill in %) [5] [%]	efficacy (kill in %) [6] [%]	efficacy (kill in %) [7] [%]	efficacy [8] [%]	efficacy [9] [%]	efficacy [10] [%]	efficacy [11] [%]
Cn1nc(C(F)(F)C(F)(F)F)c(C(F)(F)F)c1-n1cc(-c2cccc(NC(=O)c3ccccc3)c2)cn1 [Example 1-010]	100	100	90	100	100	100	100	100	100	100	100
Cn1nc(C(F)(F)C(F)(F)F)c(C(F)(F)F)c1-n1cc(-c2ccc(F)c(NC(=O)c3ccccc3)c2)cn1 [Example 1-026]	100	100	100	100	100	100	90	100	100	100	100
Cn1nc(C(F)(F)C(F)(F)F)c(C(F)(F)F)c1-n1cc(-c2ccc(F)c(NC(=O)c3ccc(F)cc3)c2)cn1 [Example 1-027]	100	100	100	100	100	100	100	100	100	100	100
Cn1nc(C(F)(F)C(F)(F)F)c(C(F)(F)F)c1-n1cc(-c2ccc(F)c(NC(=O)c3ccnc(F)c3)c2)cn1 [Example 1-089]	100	100	100	100	100	100	100	90	100	100	100
COc1cc(C(=O)Nc2cc(-c3cnn(-c4c(C(F)(F)F)c(C(F)(F)C(F)(F)F)nn4C)c3)ccc2F)ccc1F [Example 1-094]	100	100	100	100	100	100	100		100	83	100
Cn1nc(C(F)(F)C(F)(F)F)c(C(F)(F)F)c1-n1cc(-c2ccc(F)c(NC(=O)c3ccc(C#N)nc3)c2)cn1 [Example 1-098]	100	80	100	100	100	100		100	100	100	100
Cn1nc(C(F)(F)C(F)(F)F)c(C(F)(F)F)c1-n1cc(-c2ccc(F)c(NC(=O)c3ccc(Cl)nc3)c2)cn1 [Example 1-099]	100	100	100	100	100	100	100	100	100	100	100
Cn1nc(C(F)(F)C(F)(F)F)c(C(F)(F)F)c1-n1cc(-c2ccc(F)c(NC(=O)c3ccc(F)nc3)c2)cn1 [Example 1-100]	100	100	100	100	100	100	100	100	100	100	100
